Experimental data reported in PubChem BioAssay AID330 (DTP/NCI, 2004).
Several values for one entry are separate records, joined by “and”; a condition that tells them apart may be missing. Equal entries are not always repeated. Toxic doses and inconclusive results are not listed. How the source made its calls: active means survival T/C of 150% or more; inactive means T/C below 125% in these data.

Tested on: P388 leukemia ip, CD2F1 mice, survival T/C
Assay: NCI In Vivo Anticancer Drug Screen. Data for tumor model P388 Leukemia (intraperitoneal) in CD2F1 (CDF1) mice
Conditions: endpoint: median survival time, higher = longer survival
In short: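 Mice carrying the transplanted tumor received test compound or vehicle. Survival was recorded in each group, and the value is the treated-group measurement divided by that of the vehicle-treated control group.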

[1] = dose: 50.0 mg/kg/injection, schedule: Q01DX009 (ip), vehicle: saline with Tween-80
[2] = dose: 100.0 mg/kg/injection, schedule: Q01DX009 (ip), vehicle: saline with Tween-80
[3] = dose: 200.0 mg/kg/injection, schedule: Q01DX009 (ip), vehicle: saline with Tween-80
[4] = dose: 50.0 mg/kg/injection, schedule: Q01DX005 (ip), vehicle: saline with Tween-80
[5] = dose: 100.0 mg/kg/injection, schedule: Q01DX005 (ip), vehicle: saline with Tween-80
[6] = dose: 200.0 mg/kg/injection, schedule: Q01DX005 (ip), vehicle: saline with Tween-80
[7] = dose: 100.0 mg/kg/injection, schedule: Q01DX009 (ip), vehicle: saline
[8] = dose: 200.0 mg/kg/injection, schedule: Q01DX009 (ip), vehicle: saline

Measured: T/C

O=C(c1ccccc1)c1ccc(NC(=O)C(F)(F)F)cc1
inactive: [1] 88 % of control | [2] 86 % of control | [3] 99 % of control

COC(=O)/N=C/CCC(O)NC(=O)OC (configuration not stated)
inactive: [4] 98 % of control | [5] 101 % of control | [6] 92 % of control

Cc1cccc(=O)[n-]1.Cc1cccc(=O)[n-]1.Cc1cccc(=O)[n-]1.Cc1cccc(=O)[n-]1.[Rh+2].[Rh+2]
inactive: dose: 100.0 mg/kg/injection, schedule: Q04DX002 (ip), vehicle: Klucel (hydroxypropylcellulose) (HPC) 103 % of control | dose: 200.0 mg/kg/injection, schedule: Q04DX002 (ip), vehicle: Klucel (hydroxypropylcellulose) (HPC) 102 % of control | dose: 400.0 mg/kg/injection, schedule: Q04DX002 (ip), vehicle: Klucel (hydroxypropylcellulose) (HPC) 100 % of control

CCOC(=O)Nc1cc(NC/C(=N/O)c2ccc(OC)cc2)c([N+](=O)[O-])c(N)n1
inactive: dose: 12.5 mg/kg/injection, schedule: Q01DX005 (ip), vehicle: saline 98 % of control | dose: 25.0 mg/kg/injection, schedule: Q01DX005 (ip), vehicle: saline 94 % of control | dose: 50.0 mg/kg/injection, schedule: Q01DX005 (ip), vehicle: saline 94 % of control

BrC1=CC(Br)=C2N=C(N3CCCC3)N=C3N=C(N4CCCC4)N=C1N32
inactive: dose: 3.75 mg/kg/injection, schedule: Q01DX005 (ip), vehicle: Klucel + Tween-80 97 % of control | dose: 7.5 mg/kg/injection, schedule: Q01DX005 (ip), vehicle: Klucel + Tween-80 97 % of control | dose: 15.0 mg/kg/injection, schedule: Q01DX005 (ip), vehicle: Klucel + Tween-80 89 % of control and 90 % of control | dose: 60.0 mg/kg/injection, schedule: Q01DX005 (ip), vehicle: Klucel + Tween-80 86 % of control

COc1nc2c(=O)[nH]cnc2n1C1OC(CO)C(O)C1O (configuration not stated)
inactive: dose: 60.0 mg/kg/injection, schedule: Q01DX005 (ip), vehicle: saline 104 % of control | dose: 120.0 mg/kg/injection, schedule: Q01DX005 (ip), vehicle: saline 97 % of control | dose: 240.0 mg/kg/injection, schedule: Q01DX005 (ip), vehicle: saline 98 % of control

CSc1cc(C)c(O)c(CO)c1
inactive: dose: 100.0 mg/kg/injection, schedule: Q04DX003 (ip), vehicle: other 104 % of control | dose: 200.0 mg/kg/injection, schedule: Q04DX003 (ip), vehicle: other 100 % of control | dose: 400.0 mg/kg/injection, schedule: Q04DX003 (ip), vehicle: other 100 % of control

S=c1nc(Oc2ccc(-c3ccccc3)cc2)[nH]c(=S)[nH]1
inactive: dose: 60.0 mg/kg/injection, schedule: Q01DX005 (ip), vehicle: saline with Tween-80 87 % of control | dose: 120.0 mg/kg/injection, schedule: Q01DX005 (ip), vehicle: saline with Tween-80 92 % of control | dose: 240.0 mg/kg/injection, schedule: Q01DX005 (ip), vehicle: saline with Tween-80 97 % of control

C[Si]1(C)O[Si](C)(C)O[Si](C)(C)O[Si](C)(C)O1
inactive: dose: 50.0 mg/kg/injection, schedule: Q01DX005 (ip), vehicle: Klucel (hydroxypropylcellulose) (HPC) 100 % of control | dose: 100.0 mg/kg/injection, schedule: Q01DX005 (ip), vehicle: Klucel (hydroxypropylcellulose) (HPC) 97 % of control | dose: 200.0 mg/kg/injection, schedule: Q01DX005 (ip), vehicle: Klucel (hydroxypropylcellulose) (HPC) 97 % of control

CC1=CC(=N/Br)/C=CC/1=N/Br
inactive: [4] 108 % of control | [5] 100 % of control | [6] 99 % of control

CCC(c1ccc(OCC(=O)N/N=C2/CCC3C4CCc5cc(O)ccc5C4CCC23C)cc1)C(CC)c1ccc(OCC(=O)N/N=C2\CCC3C4CCc5cc(O)ccc5C4CCC23C)cc1 (configuration not stated)
inactive: dose: 25.0 mg/kg/injection, schedule: Q01DX001 (ip), vehicle: Klucel (hydroxypropylcellulose) (HPC) 98 % of control | dose: 50.0 mg/kg/injection, schedule: Q01DX001 (ip), vehicle: Klucel (hydroxypropylcellulose) (HPC) 90 % of control

Cc1ccc(NC(=S)SCc2ccc(Cl)c(Cl)c2)cc1Br
inactive: dose: 50.0 mg/kg/injection, schedule: Q01DX009 (ip), vehicle: saline 113 % of control | [7] 100 % of control | [8] 90 % of control | dose: 200.0 mg/kg/injection, schedule: Q01DX009 (ip), vehicle: suspension in saline 95 % of control

CCCCCCCCSP(SCCCCCCCC)SCCCCCCCC
inactive: [1] 113 % of control | [2] 106 % of control | [7] 96 % of control | [3] 103 % of control | [8] 102 % of control and 91 % of control
